Source: ChEMBL document CHEMBL1201862, “PubChem BioAssay data set” (2004)
Active and inactive are the calls of the source. No stated cut-off is given here; in the data, actives have a measured IC50 and inactives only a lower limit.

Molecular target: Envelope glycoprotein gp160 (Human immunodeficiency virus 1, UniProt Q6QLK5)
Experiment: cell-free HIV fusion peptide-binding blockers – biochemical, uHTS, fluorescence dequenching, […] (AID 1986)

Chain of Envelope glycoprotein gp160 (Q6QLK5 whole entry, the tested form may be a part): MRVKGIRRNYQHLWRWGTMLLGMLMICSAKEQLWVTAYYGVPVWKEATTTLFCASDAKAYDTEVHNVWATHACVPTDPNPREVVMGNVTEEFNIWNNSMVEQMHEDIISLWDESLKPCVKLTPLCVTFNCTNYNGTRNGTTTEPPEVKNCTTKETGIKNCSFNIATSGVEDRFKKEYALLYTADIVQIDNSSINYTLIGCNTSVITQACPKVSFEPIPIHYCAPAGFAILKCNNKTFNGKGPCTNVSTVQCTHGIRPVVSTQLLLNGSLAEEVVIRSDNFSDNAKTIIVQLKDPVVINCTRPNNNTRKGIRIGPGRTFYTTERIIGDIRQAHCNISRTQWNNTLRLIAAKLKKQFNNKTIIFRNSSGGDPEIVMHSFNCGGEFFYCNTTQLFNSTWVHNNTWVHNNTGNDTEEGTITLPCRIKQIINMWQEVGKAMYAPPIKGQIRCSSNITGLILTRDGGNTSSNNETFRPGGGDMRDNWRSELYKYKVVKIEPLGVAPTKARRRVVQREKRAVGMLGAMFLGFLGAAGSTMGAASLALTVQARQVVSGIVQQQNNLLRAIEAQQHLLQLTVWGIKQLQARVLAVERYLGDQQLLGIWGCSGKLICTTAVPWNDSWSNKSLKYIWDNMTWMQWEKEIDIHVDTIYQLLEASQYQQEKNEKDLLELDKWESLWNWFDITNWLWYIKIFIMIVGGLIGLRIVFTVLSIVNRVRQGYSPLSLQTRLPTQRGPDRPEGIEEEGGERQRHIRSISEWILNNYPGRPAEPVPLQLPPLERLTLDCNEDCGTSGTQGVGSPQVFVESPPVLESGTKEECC

Row | Structure (SMILES) | IC50
1 | COc1cc(Cl)cc(C(c2c(C(=O)O)[nH]c3ccccc23)c2c(C(=O)O)[nH]c3ccccc23)c1O | 4.81 µM (active)
2 | O=C1N=C(NS(=O)(=O)c2ccccc2)S/C1=C\c1cc([N+](=O)[O-])ccc1O | 12.7 µM (active)
3 | N=C1/C(=C/c2ccc(-c3cccc(C(=O)O)c3)o2)C(=O)N=C2SC=C(c3ccccc3)N12 | 6.34 µM (active)
4 | COc1cc(/C=C2\C(=N)N3N=C(S(C)(=O)=O)SC3=NC2=O)ccc1OS(=O)(=O)c1ccccc1 | 19.3 µM (active)
5 | CCS(=O)(=O)C1=NSC2=NC(=O)/C(=C\c3ccc(OS(=O)(=O)c4ccccc4)cc3)C(=N)N21 | 19.9 µM (active)
